Laboratory results: US9221756B2, “Pyrrole derivatives” (priority 2011, dated 2015)

What follows are compounds tested against pneumolysin (Streptococcus pneumoniae serotype 2, UniProt Q04IN8) (assay: Inhibition of the haemolytic activity of pneumolysin (sheep erythrocytes)). Settings: IC50, inhibition of pneumolysin-induced haemolysis of sheep erythrocytes; class symbols of Table 1.
Chain of pneumolysin (Q04IN8 whole entry): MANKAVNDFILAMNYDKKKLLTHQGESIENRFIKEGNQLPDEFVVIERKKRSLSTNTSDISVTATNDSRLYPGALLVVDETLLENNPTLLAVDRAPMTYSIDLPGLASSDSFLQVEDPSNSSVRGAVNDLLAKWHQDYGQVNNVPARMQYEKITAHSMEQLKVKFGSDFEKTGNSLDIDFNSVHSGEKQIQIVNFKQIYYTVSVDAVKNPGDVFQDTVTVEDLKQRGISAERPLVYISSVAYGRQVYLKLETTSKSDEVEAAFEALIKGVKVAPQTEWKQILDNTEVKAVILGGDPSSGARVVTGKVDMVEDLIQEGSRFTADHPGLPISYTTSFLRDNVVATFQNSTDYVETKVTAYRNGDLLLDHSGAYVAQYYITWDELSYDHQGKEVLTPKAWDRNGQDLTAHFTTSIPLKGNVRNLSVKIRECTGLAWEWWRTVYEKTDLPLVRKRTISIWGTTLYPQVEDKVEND
Assay type: cell-based
With CCOC(=O)c1c(O)c(O)c(C(=O)N(C)C)n1-c1ccc(OCCOCCOCCOCCOC)cc1 [UL1-096, ethyl 1-(4-(2,5,8,11-tetraoxatridecan-13-yloxy)phenyl)-5-(dimethylcarbamoyl)-3,4-dihydroxy-1H-pyrrole-2-carboxylate] the IC50 was < 10 µM.
For CCOC(=O)c1c(O)c(O)c(C(=O)N(C)C)n1-c1ccc(OP(=O)(O)O)cc1 [UL1-101, ethyl 5-(dimethylcarbamoyl)-3,4-dihydroxy-1-(4-(phosphonooxy)phenyl)-1H-pyrrole-2-carboxylate], the IC50 was < 10 µM.
In the case of CCOC(=O)c1c(O)c(O)c(C(=O)N2CCOCC2)n1-c1ccc(OC)cc1 [UL1-040, ethyl 3,4-dihydroxy-1-(4-methoxyphenyl)-5-(morpholine-4-carbonyl)-1H-pyrrole-2-carboxylate], the IC50 is reported as < 10 µM.
With CCOC(=O)c1c(O)c(O)c(C(=O)N2CCN(C)CC2)n1-c1ccc(OC)cc1 [UL1-037, ethyl 3,4-dihydroxy-1-(4-methoxyphenyl)-5-(4-methylpiperazine-1-carbonyl)-1H-pyrrole-2-carboxylate] the IC50 was < 10 µM.
With CC(=O)N1CCN(C(=O)c2c(O)c(O)c(C(=O)N3CCN(C(C)=O)CC3)n2-c2ccc(F)cc2)CC1 [UL1-010, 1,1′-(4,4′-(1-(4-fluorophenyl)-3,4-dihydroxy-1H-pyrrole-2,5-dicarbonyl)bis(piperazine-4,1-diyl))diethanone] the IC50 was < 10 µM.
COc1ccc(-n2c(C(=O)OC3CCCC3)c(O)c(O)c2C(=O)N(C)C)cc1 [UL1-116, cyclopentyl 5-(dimethylcarbamoyl)-3,4-dihydroxy-1-(4-methoxyphenyl)-1H-pyrrole-2-carboxylate] was tested, and the IC50 was < 10 µM.
For CCOC(=O)c1c(OCc2ccccc2)c(OCc2ccccc2)c(-c2ccccn2)n1-c1ccc(OC)cc1 [UL1-082, ethyl 3,4-bis(benzyloxy)-1-(4-methoxyphenyl)-5-(pyridin-2-yl)-1H-pyrrole-2-carboxylate], the IC50 was 10 to 20 µM.
For COc1ccc(-n2c(C(N)=O)c(OCc3ccccc3)c(OCc3ccccc3)c2C(N)=O)cc1 [UL1-072, 3,4-bis(benzyloxy)-1-(4-methoxyphenyl)-1H-pyrrole-2,5-dicarboxamide], the IC50 was 20 to 60 µM.
In the case of CCOC(=O)c1c(O)c(O)c(-c2nc(CC)cs2)n1-c1ccc(OC)cc1 [UL1-086, ethyl 5-(4-ethylthiazol-2-yl)-3,4-dihydroxy-1-(4-methoxyphenyl)-1H-pyrrole-2-carboxylate], the IC50 is reported as < 10 µM.
With CCNC(=O)c1c(O)c(O)c(C(=O)NCC)n1-c1ccc(OCC)cc1 [UL1-078, 1-(4-ethoxyphenyl)-N2,N5-diethyl-3,4-dihydroxy-1H-pyrrole-2,5-dicarboxamide] the IC50 was < 10 µM.
With CCOC(=O)c1c(O)c(O)c(C(=O)N(C)C)n1-c1ccc(OCCOC)cc1 [UL1-093, ethyl 5-(dimethylcarbamoyl)-3,4-dihydroxy-1-(4-(2-methoxyethoxy)phenyl)-1H-pyrrole-2-carboxylate] the IC50 was < 10 µM.
In the case of CCN(CC)C(=O)c1c(OCc2ccccc2)c(OCc2ccccc2)c(C(=O)N(CC)CC)n1-c1ccc(OC)cc1 [UL1-046, 3,4-bis(benzyloxy)-N^2,N^2,N^5,N^5-tetraethyl-1-(4-methoxyphenyl)-1H-pyrrole-2,5-dicarboxamide], the IC50 is reported as < 10 µM.
COc1ccc(-n2c(C(=O)OC(C)C)c(O)c(O)c2C(=O)OC(C)C)cc1 [UL2-020, diisopropyl 3,4-dihydroxy-1-(4-methoxyphenyl)-1H-pyrrole-2,5-dicarboxylate] was tested, and the IC50 was < 10 µM.
Work on CCOC(=O)c1c(O)c(O)c(C(=O)OCC)n1-c1ccc(C#N)cc1 [UL2-024, diethyl 1-(4-cyanophenyl)-3,4-dihydroxy-1H-pyrrole-2,5-dicarboxylate] yielded an IC50 of 10 to 20 µM.
Work on COc1ccc(-n2c(C(=O)N(C)C)c(OC(=O)C(C)(C)COCCOCCOP(=O)(O)O)c(OC(=O)C(C)(C)COCCOCCOP(=O)(O)O)c2C(=O)N(C)C)cc1 [UL1-121, 2,5-bis(dimethylcarbamoyl)-1-(4-methoxyphenyl)-1H-pyrrole-3,4-diyl bis(2,2-dimethyl-3-(2-(2-(phosphonooxy)ethoxy)ethoxy)propanoate)] yielded an IC50 of 10 to 20 µM.
In the case of COc1ccc(-n2c(C(=O)N(C)C)c(O)c(O)c2C(=O)N(C)C)cc1 [UL1-005, 3,4-dihydroxy-1-(4-methoxyphenyl)-N^2,N^2,N^5,N^5-tetramethyl-1H-pyrrole-2,5-dicarboxamide], the IC50 is reported as < 10 µM.
For CCOC(=O)c1c(O)c(O)c(C(=O)OCC)n1-c1ccc(OC)c(OC)c1 [UL2-011, diethyl 1-(3,4-dimethoxyphenyl)-3,4-dihydroxy-1H-pyrrole-2,5-dicarboxylate], the IC50 was < 10 µM.
CCOC(=O)c1c(O)c(O)c(C(=O)OCC)n1-c1ccc(Cl)cc1 [UL2-012, diethyl 1-(4-chlorophenyl)-3,4-dihydroxy-1H-pyrrole-2,5-dicarboxylate] was tested, and the IC50 was < 10 µM.
For CCOC(=O)c1c(OC(=O)CCOC)c(OC(=O)CCOC)c(C(=O)N(C)C)n1-c1ccc(OC)cc1 [UL1-104, 2-(dimethylcarbamoyl)-5-(ethoxycarbonyl)-1-(4-methoxyphenyl)-1H-pyrrole-3,4-diyl bis(3-methoxypropanoate)], the IC50 was < 10 µM.
With CCOC(=O)c1c(O)c(O)c(C(=O)OCC)n1-c1ccc2c(c1)OCO2 [UL2-019, diethyl 1-(benzo[d][1,3]dioxol-5-yl)-3,4-dihydroxy-1H-pyrrole-2,5-dicarboxylate] the IC50 was 20 to 60 µM.
NC(=O)c1c(O)c(O)c(C(N)=O)n1-c1ccc(F)cc1 [UL1-076, 1-(4-fluorophenyl)-3,4-dihydroxy-1H-pyrrole-2,5-dicarboxamide] was tested, and the IC50 was 10 to 20 µM.
Compound CCOC(=O)c1c(OC(=O)C(C)(C)COCCOC)c(OC(=O)C(C)(C)COCCOC)c(C(=O)N(C)C)n1-c1ccc(OC)cc1 [UL1-108, 2-(dimethylcarbamoyl)-5-(ethoxycarbonyl)-1-(4-methoxyphenyl)-1H-pyrrole-3,4-diyl bis(3-(2-methoxyethoxy)-2,2-dimethylpropanoate)] has an IC50 of 10 to 20 µM.
CCOC(=O)c1c(O)c(O)c(C(=O)N(C)C)n1-c1ccc(I)cc1 [UL1-042, ethyl 5-(dimethylcarbamoyl)-3,4-dihydroxy-1-(4-iodophenyl)-1H-pyrrole-2-carboxylate] was tested, and the IC50 was < 10 µM.
For COc1ccc(-n2c(C(=O)N(C)C)c(O)c(O)c2P(C)(C)=O)cc1 [UL1-125, 5-(dimethylphosphoryl)-3,4-dihydroxy-1-(4-methoxyphenyl)-N,N-dimethyl-1H-pyrrole-2-carboxamide], the IC50 was < 10 µM.
O=C(c1c(O)c(O)c(C(=O)N2CCOCC2)n1-c1ccc(C(F)(F)F)cc1)N1CCOCC1 [UL1-023, (3,4-dihydroxy-1-(4-(trifluoromethyl)phenyl)-1H-pyrrole-2,5-diyl)bis(morpholinomethanone)] was tested, and the IC50 was < 10 µM.
CCOC(=O)c1c(O)c(OCC(=O)OC(C)(C)C)c(C(=O)OCC)n1-c1ccc(F)cc1 [UL2-027, diethyl 3-(2-(tert-butoxy)-2-oxoethoxy)-1-(4-fluorophenyl)-4-hydroxy-1H-pyrrole-2,5-dicarboxylate] gave an IC50 of 10 to 20 µM.
For CCOC(=O)c1c(O)c(O)c(C(=O)N(C)C)n1-c1ccc(O)cc1 [UL1-100, ethyl 5-(dimethylcarbamoyl)-3,4-dihydroxy-1-(4-hydroxyphenyl)-1H-pyrrole-2-carboxylate], the IC50 was < 10 µM.

Same assay, conditions: IC50, inhibition of pneumolysin-induced haemolysis of sheep erythrocytes; specific values
With COc1ccc(-n2c(C(=O)OC3CCCC3)c(O)c(O)c2C(=O)N(C)C)cc1 [UL1-116, cyclopentyl 5-(dimethylcarbamoyl)-3,4-dihydroxy-1-(4-methoxyphenyl)-1H-pyrrole-2-carboxylate] the IC50 was 0.18 µM.
Work on COc1ccc(-n2c(C(=O)N(C)C)c(O)c(O)c2C(=O)N(C)C)cc1 [UL1-005, 3,4-dihydroxy-1-(4-methoxyphenyl)-N^2,N^2,N^5,N^5-tetramethyl-1H-pyrrole-2,5-dicarboxamide] yielded an IC50 of 0.15 µM.
